In patent US20040043919A1, “Method for the treatment of neurological and neuropsychological disorders” (priority 2003, published 2004):

How the values were obtained:
[1] = target: T1, attractin from human plasma (Homo sapiens, UniProt O75882); test: Proteolytic activity of purified attractin (chromogenic substrate kinetics); assay type: biochemical
T1 construct: was prepared from 100 ml plasma from healthy humans; tissue Baxter GmbH Germany, Plasmazentrum Halle (supplier of the plasma); host or cells: human plasma
T1 sequence (O75882 84-1272 isoform O75882-2 limits assumed): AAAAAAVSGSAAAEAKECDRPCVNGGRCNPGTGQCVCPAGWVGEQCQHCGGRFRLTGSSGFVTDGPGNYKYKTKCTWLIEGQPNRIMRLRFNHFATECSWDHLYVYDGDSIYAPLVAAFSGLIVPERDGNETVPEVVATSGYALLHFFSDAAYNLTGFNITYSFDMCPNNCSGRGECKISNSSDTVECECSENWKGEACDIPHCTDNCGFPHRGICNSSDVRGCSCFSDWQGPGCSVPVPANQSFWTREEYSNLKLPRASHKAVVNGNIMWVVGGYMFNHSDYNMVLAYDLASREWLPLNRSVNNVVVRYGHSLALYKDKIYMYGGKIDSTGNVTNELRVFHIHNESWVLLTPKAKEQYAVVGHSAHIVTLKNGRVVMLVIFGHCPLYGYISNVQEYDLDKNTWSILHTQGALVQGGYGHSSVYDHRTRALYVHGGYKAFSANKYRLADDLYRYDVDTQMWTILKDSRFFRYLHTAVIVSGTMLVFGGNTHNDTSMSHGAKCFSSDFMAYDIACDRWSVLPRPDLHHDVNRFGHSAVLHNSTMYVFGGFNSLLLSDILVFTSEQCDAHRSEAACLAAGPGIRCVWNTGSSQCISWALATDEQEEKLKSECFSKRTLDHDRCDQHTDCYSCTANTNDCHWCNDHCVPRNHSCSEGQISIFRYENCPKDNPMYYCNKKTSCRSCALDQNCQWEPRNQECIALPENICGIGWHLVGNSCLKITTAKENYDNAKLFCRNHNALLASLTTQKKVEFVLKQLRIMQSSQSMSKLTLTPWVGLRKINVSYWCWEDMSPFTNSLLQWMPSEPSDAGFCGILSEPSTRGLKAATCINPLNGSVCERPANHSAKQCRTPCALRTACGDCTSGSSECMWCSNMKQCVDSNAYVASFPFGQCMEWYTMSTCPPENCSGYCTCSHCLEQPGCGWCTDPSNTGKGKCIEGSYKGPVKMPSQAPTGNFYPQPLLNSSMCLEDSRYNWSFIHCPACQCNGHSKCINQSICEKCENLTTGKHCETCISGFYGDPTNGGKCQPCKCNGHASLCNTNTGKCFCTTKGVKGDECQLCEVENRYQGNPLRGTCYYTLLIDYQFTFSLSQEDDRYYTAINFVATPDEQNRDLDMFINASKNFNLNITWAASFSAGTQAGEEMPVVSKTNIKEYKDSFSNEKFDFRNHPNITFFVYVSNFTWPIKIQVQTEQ
Experimental: (§1) Attractin from human plasma (Baxter GmbH Germany, Plasmazentrum Halle) was prepared from 100 ml plasma from healthy humans. Matrix-assisted laser desorption/ionisation mass spectrometry was carried out using the Hewlett-Packard G2025 LD-TOF System.
(§2) In further studies the proteolytic activity of attractin has been investigated. […] In addition, the cleavage of bioactive peptides such as NP Y, RANTES, GIP, and Glucagon by purified attractin has been analyzed. […] Previously, differences within hydrolysis of the chemokine RANTES by DP IV and attractin have been described^4.

[2] = target: T1, attractin from human plasma; test: MALDI-TOF analysis of peptide cleavage by purified attractin in presence or absence of isoleucyl-thiazolidine; assay type: biochemical; conditions: peptide 25 μM, 37° C.; for Cleavage of bioactive peptide by purified attractin: tricine/HCl pH 7.6, MALDI-TOF (FIG. 1)
Experimental: as §1
To obtain spectra of peptides (25 μM) by the treatment of purified DP IV and attractin in the presence or absence of isoleucyl-thiazolidine (10 μM), substrates were incubated at 37° C. with 40 mM tricine/HCl buffer pH 7.6 and enzyme solution in a 2:2:1 ratio. Samples of the reaction mixtures were removed at various time intervals and mixed with equal volumes of the matrix solution. By mixing assay sample and matrix, the low pH of the matrix solution stopped the enzymatic reaction. A small volume of this mixture was transferred to a probe tip and immediately evaporated in a Hewlett-Packard G2024A Sample Prep Accessory.
as §2

[3] = system: olfactory bulbectomized rats; conditions: 7-day i.c.v. administration; cited from earlier work
[4] = system: rats; conditions: administered into the dorsal periaqueductal gray matter; cited from earlier work
[5] = Anxiolytic effect on administration of the attractin inhibitor; assay type: in vivo; conditions: no method or data given

Q: With `NCC(=O)N1CCCC1C(=O)Nc1ccc([N+](=O)[O-])cc1` (stereo not drawn) [Gly-Pro-pNA] as the compound, how does the Km [1] read?
A: The Km was 140 µM.

Q: For “RANTES1-15: synthetic N-terminal fragment 1-15 of the chemokine RANTES (SPYSSDTTPCCFAYI; UniProt P13501 24-38, looked up, fragment)”, which “Cleavage of bioactive peptide by purified attractin” value [2] is on record?
A: Its value is “capable of releasing sequentially the first (Ser-Pro) as well as the second dipeptide (Tyr-Ser)”.

Q: Which results are given for Neuropeptide Y [NP Y]?
A: Behavioral and neurotransmitter deficits [3]: attenuated behavioral and neurotransmitters deficits; Cleavage of bioactive peptide by purified attractin [2]: capable of releasing the N-terminal dipeptide Tyr-Pro

Q: With `NC(N)=NCCC[C@@H](NC(=O)C(c1ccccc1)c1ccccc1)C(=O)NCc1ccc(O)cc1` [BIBP3226] as the compound, how does the “Time spent in active social interaction” value [4] read?
A: The value was “decreased the time spent in active social interaction”.

Q: With isoleucyl-thiazolidine hemifumarate as the compound, how does the Anxiolytic effect [5] read?
A: The Anxiolytic effect was “exhibits an anxiolytic effect”.

Q: What about the “Cleavage of NP Y by attractin in presence of inhibitor” value ([2]; isoleucyl-thiazolidine 10 μM, pH 7.6, MALDI-TOF (FIG. 1B)) of the same compound?
A: The value was “the cleavage was suppressed”.
